Among the test systems are Bacillus subtilis; Escherichia coli W160-37; Micrococcus luteus MT166; Escherichia coli 117; Escherichia coli 218; Escherichia coli 37; Klebsiella pneumoniae; Pseudomonas aeruginosa; Shigella dysenteriae; Staphylococcus aureus 37.
What all share (assay): ≥ marks a high value that may be exact or a test limit, other limits are often not marked, values filed in µg/mL are converted to µM
The subject of test [1] is Pseudomonas putida NCIM 2102.
The subject of test [2] is Saccharomyces cerevisiae ATCC 8530.
In test [3] the test system is Staphylococcus aureus ATCC 8530.
Test [4] relates to Candida albicans ATCC 2002.
For test [5], the system named is Candida albicans ATCC 90028.
Test [6] deals with Candida parapsilosis ATCC 22019.
Test [7] concerns Enterobacter cloacae ATCC 13047.
Test [8] relates to Enterococcus faecalis ATCC 29212.
Test [9] concerns Escherichia coli ATCC 25922.
Test [10] deals with Klebsiella pneumoniae ATCC 700603.
The subject of test [11] is Pseudomonas aeruginosa ATCC 27853.
Test [12] concerns Pseudomonas aeruginosa CMCCB 1010.
The subject of test [13] is Staphylococcus aureus ATCC 25923.
Test [14] has as its system Escherichia coli KCTC 2223.
Test [15] concerns Micrococcus luteus ATCC 10240.
The test system of test [16] is Salmonella typhimurium KCTC 2370.
Test [17] concerns Staphylococcus aureus ATCC 15752.
In test [18] the test system is Pseudomonas aeruginosa 253.
Test [19] deals with Pseudomonas aeruginosa 910.
The test system of test [20] is Pseudomonas aeruginosa 919.
The subject of test [21] is Pseudomonas aeruginosa PAO1.
Test [22] relates to Bacillus subtilis ATCC 62037.
Test [23] concerns Candida albicans ATCC 10231.
In test [24] the test system is Escherichia coli ATCC 27325.
Test [25] concerns Pseudomonas putida ATCC 17426.
For test [26], the system named is Saccharomyces cerevisiae ATCC 44774.
The subject of test [27] is Salmonella enterica subsp. enterica serovar Enteritidis ATCC 13076.
In test [28] the test system is Streptococcus mutans ATCC 25175.

SMILES strings stand for the structures. ≈ marks a conversion by molar mass, not a printed value.

Usually MIC stands for the least concentration at which growth counts as inhibited. A high value points to weaker potency. In the case of `CC[C@H](C)[C@@H]1NC(=O)[C@H](CCSC)NC(=O)[C@H]([C@@H](C)O)NC(=O)[C@@H](NC(=O)[C@@H](N)Cc2ccccc2)CSSC[C@@H](C(=O)N[C@@H](Cc2ccc(O)cc2)C(N)=O)NC(=O)[C@H](CCCN=C(N)N)NC(=O)[C@@H]2CCCN2C(=O)[C@H]([C@@H](C)CC)NC(=O)[C@@H]2CCCN2C1=O` [FCTMIPIPRCY], the MIC with Bacillus subtilis is 22.3 µM (≈ 29.9 µg/mL); with Escherichia coli W160-37, 29.8 µM (≈ 39.9 µg/mL); against Micrococcus luteus MT166, 14.9 µM (≈ 20 µg/mL); in test [1], 29.8 µM (≈ 39.9 µg/mL); in test [2] it was ≥ 59.5 µM; in test [3] it was 22.3 µM (≈ 29.9 µg/mL).
With `CC[C@H](C)[C@H](NC(=O)[C@H](C)NC(=O)[C@H](CCCCN)NC(=O)[C@H](CC(C)C)NC(=O)[C@@H](N)CC(N)=O)C(=O)N[C@@H](C)C(=O)N[C@@H](C)C(=O)N[C@@H](CC(C)C)C(=O)N[C@@H](C)C(=O)N[C@@H](CCCCN)C(=O)N[C@@H](CCCCN)C(=O)N[C@@H](CC(C)C)C(=O)N[C@@H](CC(C)C)C(=O)O` [NLKAIAALAKKLL], the minimum inhibitory concentration (MIC) came out at 7.32 µM (≈ 10 µg/mL) in test [4]; 7.32 µM (≈ 10 µg/mL) in [5]; 29.3 µM (≈ 40 µg/mL) in [6]; 7.32 µM (≈ 10 µg/mL) in test [7]; 3.66 µM (≈ 5 µg/mL) in test [8]; 14.6 µM (≈ 20 µg/mL) with Escherichia coli 117. Besides, the MIC against Escherichia coli 218 is 7.32 µM (≈ 10 µg/mL); in the test on Escherichia coli 37, 3.66 µM (≈ 5 µg/mL); in test [9], 14.6 µM (≈ 20 µg/mL); in test [10], 14.6 µM (≈ 20 µg/mL); against Klebsiella pneumoniae, 7.32 µM (≈ 10 µg/mL); in [11], 29.3 µM (≈ 40 µg/mL). The MIC amounted to 14.6 µM (≈ 20 µg/mL) in test [12]; 7.32 µM (≈ 10 µg/mL) against Pseudomonas aeruginosa; 14.6 µM (≈ 20 µg/mL) against Shigella dysenteriae; 7.32 µM (≈ 10 µg/mL) against Staphylococcus aureus 37; 3.66 µM (≈ 5 µg/mL) in [13].
With `CC(C)C[C@H](NC(=O)[C@H](CCCCN)NC(=O)[C@H](CCC(N)=O)NC(=O)[C@H](CCCCN)NC(=O)[C@H](CC(C)C)NC(=O)[C@H](CC(C)C)NC(=O)[C@H](CCC(N)=O)NC(=O)[C@H](CC(C)C)NC(=O)[C@H](CC(C)C)NC(=O)[C@@H]1CCCN1C(=O)[C@H](CCCN=C(N)N)NC(=O)[C@H](CC(C)C)NC(=O)[C@H](CC(C)C)NC(=O)[C@@H](N)CCCN=C(N)N)C(=O)N[C@@H](CCCN=C(N)N)C(=O)O` [RLLRPLLQLLKQKLR], the MIC in [14] was found to be 16 µM (≈ 30.2 µg/mL); in test [15] it was 1 µM (≈ 1.89 µg/mL); in test [16], 8 µM (≈ 15.1 µg/mL); in test [17] it was 1 µM (≈ 1.89 µg/mL).
As to `CC[C@H](C)[C@H](NC(=O)[C@H](CCCN=C(N)N)NC(=O)[C@H](Cc1c[nH]c2ccccc12)NC(=O)[C@H](CC(C)C)NC(=O)[C@@H](N)CCCN=C(N)N)C(=O)N[C@H](C(=O)N[C@H](C(=O)N[C@H](C(=O)N[C@@H](CCCN=C(N)N)C(=O)N[C@H](C(=O)N[C@@H](CCCCN)C(=O)N[C@@H](CCCN=C(N)N)C(N)=O)C(C)C)[C@@H](C)CC)C(C)C)C(C)C` [RLWRIVVIRVKR], the MIC is 16 µM (≈ 25.5 µg/mL) in test [18], ≥ 32 µM in [19], ≥ 32 µM in [20] and 16 µM (≈ 25.5 µg/mL) in test [21].
As for `CC[C@H](C)[C@H](NC(=O)[C@@H]1CCCN1C(=O)[C@H](Cc1c[nH]c2ccccc12)NC(=O)[C@H](CCC(N)=O)NC(=O)[C@H](CCCN=C(N)N)NC(=O)[C@@H](NC(=O)[C@@H](NC(=O)[C@@H](N)CCCN=C(N)N)C(C)C)C(C)C)C(=O)NCC(=O)N[C@@H](CCCN=C(N)N)C(=O)N[C@H](C(=O)N[C@H](C(=O)N[C@@H](CCCN=C(N)N)C(=O)N[C@@H](CCCN=C(N)N)C(=O)N[C@H](C(=O)N[C@H](C(=O)N[C@@H](CCCN=C(N)N)C(=O)N[C@@H](CCCN=C(N)N)C(=O)N[C@H](C(=O)N[C@H](C(=O)N[C@@H](CCCN=C(N)N)C(=O)N[C@@H](Cc1ccc(O)cc1)C(=O)O)C(C)C)C(C)C)C(C)C)C(C)C)C(C)C)C(C)C` [RVVRQWPIGRVVRRVVRRVVRY], the MIC in [22] was determined as 0.713 µM (≈ 2 µg/mL); in [23] it was 1.43 µM (≈ 4 µg/mL); in [24], 1.43 µM (≈ 4 µg/mL); in test [25], 0.713 µM (≈ 2 µg/mL); in test [26], 0.356 µM (≈ 1 µg/mL); in [27], 0.713 µM (≈ 2 µg/mL). For the same molecule, the MIC in test [17] and in [28] was 0.713 µM (≈ 2 µg/mL) in each case.

The record behind these values is DBAASP.
